Measurements as given in the NIST ThermoML archive (doi:10.1021/je300873x).

Assay: mn = molality of the nth substance listed, in mol/kg
Settings: for surface tension liquid-gas: Pendant drop shape; for electrical conductivity: Liquid, Digital conductivity meter

CCCCCCCCCCCCCC[N+](C)(CCO)CCO.[Br-] [N,N-bis(2-hydroxyethyl)-N-methyltetradecanaminium bromide] + O
Settings | electrical conductivity [S/m] | surface tension liquid-gas [mN/m]
298.15 K, m1 = 0.0003 | – | 64.43
298.15 K, m1 = 0.00061 | – | 59.09
298.15 K, m1 = 0.00081 | – | 56.14
298.15 K, m1 = 0.00102 | – | 54.31
298.15 K, m1 = 0.00152 | – | 48.51
298.15 K, m1 = 0.00203 | – | 44.69
298.15 K, m1 = 0.00254 | – | 40.4
298.15 K, m1 = 0.0026 | 0.021 | –
298.15 K, m1 = 0.0027 | 0.0218 | –
298.15 K, m1 = 0.0028 | 0.0226 | –
298.15 K, m1 = 0.00292 | 0.0235 | –
298.15 K, m1 = 0.00305 | 0.0242 | 38.3
298.15 K, m1 = 0.00319 | 0.025 | –
298.15 K, m1 = 0.00334 | 0.0255 | –
298.15 K, m1 = 0.00351 | 0.0259 | –
298.15 K, m1 = 0.00369 | 0.0262 | –
298.15 K, m1 = 0.0039 | 0.0267 | –
298.15 K, m1 = 0.00412 | 0.0272 | –
298.15 K, m1 = 0.00438 | 0.0277 | –
298.15 K, m1 = 0.00467 | 0.0283 | 38.31
298.15 K, m1 = 0.00501 | 0.0289 | –
298.15 K, m1 = 0.00508 | – | 38.46
298.15 K, m1 = 0.00539 | 0.0298 | –
298.15 K, m1 = 0.00584 | 0.0306 | –
298.15 K, m1 = 0.00609 | – | 38.23
298.15 K, m1 = 0.00637 | 0.0317 | –
298.15 K, m1 = 0.00812 | – | 38.23
303.15 K, m1 = 0.00259 | 0.0232 | –
303.15 K, m1 = 0.00269 | 0.024 | –
303.15 K, m1 = 0.0028 | 0.025 | –
303.15 K, m1 = 0.00292 | 0.0257 | –
303.15 K, m1 = 0.00304 | 0.0268 | –
303.15 K, m1 = 0.00318 | 0.0278 | –
303.15 K, m1 = 0.00333 | 0.0282 | –
303.15 K, m1 = 0.0035 | 0.029 | –
303.15 K, m1 = 0.00369 | 0.0295 | –
303.15 K, m1 = 0.00389 | 0.03 | –
303.15 K, m1 = 0.00412 | 0.0305 | –
303.15 K, m1 = 0.00438 | 0.0311 | –
303.15 K, m1 = 0.00467 | 0.0318 | –
303.15 K, m1 = 0.005 | 0.0325 | –
303.15 K, m1 = 0.00539 | 0.0334 | –
303.15 K, m1 = 0.00584 | 0.0343 | –
303.15 K, m1 = 0.00637 | 0.0356 | –
308.15 K, m1 = 0.00259 | 0.0256 | –
308.15 K, m1 = 0.00269 | 0.0264 | –
308.15 K, m1 = 0.0028 | 0.0274 | –
308.15 K, m1 = 0.00291 | 0.0285 | –
308.15 K, m1 = 0.00304 | 0.0297 | –
308.15 K, m1 = 0.00318 | 0.0309 | –
308.15 K, m1 = 0.00333 | 0.0318 | –
308.15 K, m1 = 0.0035 | 0.0325 | –
308.15 K, m1 = 0.00368 | 0.0331 | –
308.15 K, m1 = 0.00388 | 0.0336 | –
308.15 K, m1 = 0.00411 | 0.0342 | –
308.15 K, m1 = 0.00437 | 0.0349 | –
308.15 K, m1 = 0.00466 | 0.0357 | –
308.15 K, m1 = 0.00499 | 0.0367 | –
308.15 K, m1 = 0.00538 | 0.0376 | –
308.15 K, m1 = 0.00583 | 0.0387 | –
308.15 K, m1 = 0.00636 | 0.0401 | –
313.15 K, m1 = 0.00258 | 0.028 | –
313.15 K, m1 = 0.00268 | 0.0291 | –
313.15 K, m1 = 0.00279 | 0.0303 | –
313.15 K, m1 = 0.00291 | 0.0314 | –
313.15 K, m1 = 0.00303 | 0.0327 | –
313.15 K, m1 = 0.00317 | 0.0341 | –
313.15 K, m1 = 0.00332 | 0.0353 | –
313.15 K, m1 = 0.00349 | 0.0364 | –
313.15 K, m1 = 0.00367 | 0.0373 | –
313.15 K, m1 = 0.00388 | 0.038 | –
313.15 K, m1 = 0.0041 | 0.0386 | –
313.15 K, m1 = 0.00436 | 0.0396 | –
313.15 K, m1 = 0.00465 | 0.0403 | –
313.15 K, m1 = 0.00498 | 0.0411 | –
313.15 K, m1 = 0.00537 | 0.0424 | –
313.15 K, m1 = 0.00582 | 0.0437 | –
313.15 K, m1 = 0.00634 | 0.0453 | –
318.15 K, m1 = 0.00258 | 0.0307 | –
318.15 K, m1 = 0.00268 | 0.0318 | –
318.15 K, m1 = 0.00279 | 0.033 | –
318.15 K, m1 = 0.0029 | 0.0344 | –
318.15 K, m1 = 0.00303 | 0.0355 | –
318.15 K, m1 = 0.00317 | 0.0372 | –
318.15 K, m1 = 0.00332 | 0.0389 | –
318.15 K, m1 = 0.00348 | 0.0407 | –
318.15 K, m1 = 0.00367 | 0.0413 | –
318.15 K, m1 = 0.00387 | 0.0425 | –
318.15 K, m1 = 0.0041 | 0.0436 | –
318.15 K, m1 = 0.00435 | 0.0446 | –
318.15 K, m1 = 0.00464 | 0.0455 | –
318.15 K, m1 = 0.00497 | 0.0467 | –
318.15 K, m1 = 0.00536 | 0.0478 | –
318.15 K, m1 = 0.0058 | 0.0494 | –
318.15 K, m1 = 0.00633 | 0.0511 | –
323.15 K, m1 = 0.00257 | 0.0334 | –
323.15 K, m1 = 0.00267 | 0.0347 | –
323.15 K, m1 = 0.00278 | 0.0359 | –
323.15 K, m1 = 0.0029 | 0.0374 | –
323.15 K, m1 = 0.00302 | 0.0388 | –
323.15 K, m1 = 0.00316 | 0.0406 | –
323.15 K, m1 = 0.00331 | 0.0424 | –
323.15 K, m1 = 0.00347 | 0.0444 | –
323.15 K, m1 = 0.00366 | 0.0464 | –
323.15 K, m1 = 0.00386 | 0.0477 | –
323.15 K, m1 = 0.00409 | 0.049 | –
323.15 K, m1 = 0.00434 | 0.0502 | –
323.15 K, m1 = 0.00463 | 0.0514 | –
323.15 K, m1 = 0.00496 | 0.0526 | –
323.15 K, m1 = 0.00535 | 0.054 | –
323.15 K, m1 = 0.00579 | 0.0559 | –
323.15 K, m1 = 0.00632 | 0.0577 | –
